Results from patent US20250090540A1, “PI3K-ALPHA INHIBITORS AND METHODS OF USE THEREOF” (Relay Therapeutics, Inc., priority 2021, published 2025).
Where two headings read alike, the source gives them in different places.

Assays:
H1047R PIK3CA enzyme = H1047R PIK3CA enzyme (Homo sapiens, UniProt P42336, H1047R); experiment: ADP-Glo Biochemical PIK3CA Kinase Assay
cells = conditions: Homo sapiens, MCF-10A, read-out: MCF10A I50
[1] = ADP-Glo biochemical PIK3CA kinase assay

Chain of H1047R PIK3CA enzyme (P42336 whole entry H1047R): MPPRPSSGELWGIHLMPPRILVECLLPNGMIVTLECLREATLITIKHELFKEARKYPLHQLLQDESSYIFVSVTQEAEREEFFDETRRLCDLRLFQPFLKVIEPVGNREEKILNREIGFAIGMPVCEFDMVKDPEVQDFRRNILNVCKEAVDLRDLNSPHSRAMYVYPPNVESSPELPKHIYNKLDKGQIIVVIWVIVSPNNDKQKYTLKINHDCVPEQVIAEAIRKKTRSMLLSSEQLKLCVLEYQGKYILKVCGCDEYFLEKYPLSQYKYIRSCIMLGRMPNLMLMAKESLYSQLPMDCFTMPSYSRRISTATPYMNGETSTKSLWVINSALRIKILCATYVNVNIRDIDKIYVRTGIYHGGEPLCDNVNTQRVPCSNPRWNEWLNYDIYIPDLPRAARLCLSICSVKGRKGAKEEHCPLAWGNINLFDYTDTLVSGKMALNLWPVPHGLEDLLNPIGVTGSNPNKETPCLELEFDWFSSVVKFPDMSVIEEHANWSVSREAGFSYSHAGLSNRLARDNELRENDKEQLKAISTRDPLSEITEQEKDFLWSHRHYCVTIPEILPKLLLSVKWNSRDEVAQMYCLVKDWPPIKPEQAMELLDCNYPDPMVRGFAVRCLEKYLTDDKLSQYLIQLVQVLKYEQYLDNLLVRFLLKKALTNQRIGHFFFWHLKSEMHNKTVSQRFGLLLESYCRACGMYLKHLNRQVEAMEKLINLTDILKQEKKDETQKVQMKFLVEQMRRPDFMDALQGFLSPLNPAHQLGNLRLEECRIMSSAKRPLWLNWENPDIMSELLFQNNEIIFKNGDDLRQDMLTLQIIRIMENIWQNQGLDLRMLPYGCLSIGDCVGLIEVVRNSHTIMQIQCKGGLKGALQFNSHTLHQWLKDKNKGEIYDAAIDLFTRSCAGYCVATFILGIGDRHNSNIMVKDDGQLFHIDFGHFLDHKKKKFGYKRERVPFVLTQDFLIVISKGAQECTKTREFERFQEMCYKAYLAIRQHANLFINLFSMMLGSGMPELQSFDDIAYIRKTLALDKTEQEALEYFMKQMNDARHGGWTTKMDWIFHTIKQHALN
Chain of H1047R PIK3CA enzyme (P27986 whole entry partner): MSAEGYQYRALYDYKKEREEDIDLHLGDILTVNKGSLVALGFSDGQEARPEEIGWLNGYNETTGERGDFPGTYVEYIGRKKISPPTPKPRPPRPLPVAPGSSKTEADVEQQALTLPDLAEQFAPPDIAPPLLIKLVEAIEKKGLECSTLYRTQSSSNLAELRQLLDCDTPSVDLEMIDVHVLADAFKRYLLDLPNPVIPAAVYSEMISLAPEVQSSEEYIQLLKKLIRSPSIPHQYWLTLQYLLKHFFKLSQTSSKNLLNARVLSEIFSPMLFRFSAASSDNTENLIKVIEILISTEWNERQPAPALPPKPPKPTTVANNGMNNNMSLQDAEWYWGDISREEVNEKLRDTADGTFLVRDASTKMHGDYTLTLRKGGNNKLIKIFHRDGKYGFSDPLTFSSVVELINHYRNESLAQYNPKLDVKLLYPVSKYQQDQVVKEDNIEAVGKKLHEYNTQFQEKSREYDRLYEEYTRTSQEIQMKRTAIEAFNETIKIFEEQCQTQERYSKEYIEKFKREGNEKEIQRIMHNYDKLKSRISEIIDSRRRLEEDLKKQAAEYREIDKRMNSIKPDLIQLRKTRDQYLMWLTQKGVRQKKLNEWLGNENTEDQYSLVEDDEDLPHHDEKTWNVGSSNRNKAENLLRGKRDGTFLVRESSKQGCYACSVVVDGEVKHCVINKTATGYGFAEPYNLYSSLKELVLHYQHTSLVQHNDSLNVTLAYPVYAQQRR

Row | Compound | IC50 (H1047R PIK3CA enzyme; [1]) [µM] | IC50 (cells) [µM] | IC50 (H1047R PIK3CA enzyme) [µM]
1 | CNC(=O)c1cnc(Nc2ccccc2C)c(NC(=O)c2cc(Br)cc3c2cnn3C)c1 [I-510] | 0.1 to 0.5 | 10 to 36 | –
2 | Cc1ccccc1Nc1ncc(C(=O)NCc2cn(C)nc2C)cc1NC(=O)c1csc2ccccc12 [I-601] | ≤ 0.1 | 5 to 10 | –
3 | Cc1ccccc1Nc1ncc(C(=O)NC2CC(=O)N(Cc3ccccc3)C2)cc1NC(=O)c1csc2ccccc12 (centres unmarked) [I-398] | 0.1 to 0.5 | 10 to 36 | –
4 | CNC(=O)c1cnc(N)c(NC(=O)c2csc3ccccc23)c1 [I-676] | 0.5 to 1 | 10 to 36 | –
5 | Cc1ccccc1Nc1ncc(C(=O)N[C@H]2CC[C@@H](O)C2)cc1NC(=O)c1csc2ccccc12 [I-596] | 0.1 to 0.5 | 1 to 5 | –
6 | CNC(=O)c1ccc(-c2cnc(Nc3ccccc3C)c(NC(=O)c3cc(F)cc(C(F)(F)F)c3)c2)cc1 [I-84] | – | 5 to 10 | 1 to 10
7 | Cc1ccccc1Nc1ncc(C(C)(C)O)cc1NC(=O)c1cc(F)cc(C(F)(F)F)c1 [I-42] | – | 10 to 36 | 1 to 10
8 | O=C(NCc1nccs1)c1cnc(N2CCCc3ccccc32)c(NC(=O)c2cc(F)cc(C(F)(F)F)c2)c1 [I-209] | – | 10 to 36 | 0.5 to 1
9 | Cc1ccccc1Nc1ncc(C(=O)NCC2(O)CC2)cc1NC(=O)c1csc2ccccc12 [I-599] | 0.1 to 0.5 | 5 to 10 | –
10 | Cc1ccccc1Nc1ncc(C(=O)NC2CS(=O)(=O)C2)cc1NC(=O)c1csc2ccccc12 [I-136] | – | 1 to 5 | ≤ 0.1
11 | Cc1ccccc1Nc1ncc(C(=O)NC2(C)CS(=O)(=O)C2)cc1NC(=O)c1csc2ccccc12 [I-361] | – | 1 to 5 | 0.1 to 0.5
12 | CNC(=O)c1cc(F)c(Nc2ccccc2C)c(NC(=O)c2csc3ccccc23)c1 [I-773] | ≤ 0.1 | < 1 | –
13 | Cc1ccccc1Nc1ncc(C(=O)N2CC(C#N)C2)cc1NC(=O)c1csc2ccccc12 [I-533] | 1 to 10 | 10 to 36 | –
14 | COc1cc(CCNC(=O)c2cnc(Nc3ccccc3C)c(NC(=O)c3csc4ccccc34)c2)ccn1 [I-598] | 0.1 to 0.5 | 5 to 10 | –
15 | Cc1ccccc1Nc1ncc(C(=O)N[C@H]2C[C@@H](O)C2)cc1NC(=O)c1csc2ccccc12 [I-397] | – | 5 to 10 | ≤ 0.1
16 | Cc1ccccc1Nc1ncc(C(=O)NCc2cnn(C(C)C)c2)cc1NC(=O)c1csc2ccccc12 [I-532] | 0.1 to 0.5 | 10 to 36 | –
17 | Cc1ccccc1Nc1ncc(C(=O)NCc2cnc3c(C)cccn23)cc1NC(=O)c1csc2ccccc12 [I-561] | 0.1 to 0.5 | 10 to 36 | –
18 | CNC(=O)c1cnc(Nc2ccccc2OC)c(NC(=O)c2csc3ccccc23)c1 [I-407] | 1 to 10 | 36 to 100 | –
19 | CNC(=O)c1cnc(Nc2ccccc2C)c(NC(=O)c2csc3ccc(F)cc23)c1 [I-150] | – | 5 to 10 | 0.1 to 0.5
20 | Cc1ccccc1Nc1ncc(C(=O)NC(C)c2ccccc2)cc1NC(=O)c1csc2ccccc12 (centres unmarked) [I-197] | – | 10 to 36 | ≤ 0.1
21 | CNC(=O)c1cnc(Nc2nn(C)cc2Br)c(NC(=O)c2cc(F)cc(C(F)(F)F)c2)c1 [I-305] | – | 36 to 100 | 10 to 100
22 | Cc1ccccc1Nc1ncc(C(=O)N[C@H]2C[C@@H](C(N)=O)C2)cc1NC(=O)c1csc2ccccc12 [I-591] | ≤ 0.1 | 1 to 5 | –
23 | CNC(=O)c1cnc(Nc2ccccc2C)c(NC(=O)Cc2ccc(O)c(O)c2)c1 [I-30] | – | 5 to 10 | 0.5 to 1

Row | Compound | IC50 (H1047R PIK3CA enzyme; [1]) [µM] | IC50 (cells) [µM] | IC50 (H1047R PIK3CA enzyme) [µM]
24 | CNC(=O)c1cnc(Nc2ccccc2C)c(NC(=O)c2cnc(OC)c(C(F)(F)F)c2)c1 [I-535] | 1 to 10 | 10 to 36 | –
25 | Cc1cc(CNC(=O)c2cnc(Nc3ccccc3C)c(NC(=O)c3csc4ccccc34)c2)no1 [I-604] | ≤ 0.1 | 1 to 5 | –
26 | Cc1ccccc1Nc1cc(=O)[nH]cc1NC(=O)c1csc2ccccc12 [I-308] | – | 36 to 100 | 1 to 10
27 | CNC(=O)[C@H]1C[C@@H](NC(=O)c2cnc(Nc3ccccc3C)c(NC(=O)c3csc4ccccc34)c2)C1 [I-692] | 0.1 to 0.5 | 10 to 36 | –
28 | CNC(=O)c1cnc(Nc2ccccc2C)c(NC(=O)c2cc3c(Cl)ccnc3[nH]2)c1 [I-424] | 10 to 100 | 36 to 100 | –
29 | COc1ncc(-c2cnc(Nc3ccccc3C)c(NC(=O)c3cc(F)cc(C(F)(F)F)c3)c2)cn1 [I-57] | – | 1 to 5 | 0.5 to 1
30 | Cc1ccccc1Nc1ncc(Br)cc1NC(=O)c1cc(F)cc(C(F)(F)F)c1 [I-60] | – | 1 to 5 | 1 to 10
31 | Cc1ccccc1Nc1c(F)cc(C(=O)NC2CS(=O)(=O)C2)cc1NC(=O)c1csc2ccccc12 [I-774] | ≤ 0.1 | 10 to 36 | –
32 | Cc1ccccc1Nc1ncc(C(=O)NC2CCCS(=O)(=O)C2)cc1NC(=O)c1cc(F)cc(C(F)(F)F)c1 (centres unmarked) [I-246] | – | < 1 | 0.1 to 0.5
33 | CNC(=O)c1cnc(Nc2ccccc2C)c(NC(=O)c2coc3c(F)cc(F)cc23)c1 [I-406] | 0.5 to 1 | 1 to 5 | –
34 | Cc1ccccc1Nc1ncc(C(=O)NCC(=O)N2CCCC2)cc1NC(=O)c1csc2ccccc12 [I-597] | 1 to 10 | 36 to 100 | –
35 | Cc1ccccc1Nc1ncc(C(=O)NC2CCS(=O)(=O)C2)cc1NC(=O)c1cc(F)cc(C(F)(F)F)c1 (centres unmarked) [I-247] | – | < 1 | 0.1 to 0.5
36 | Cc1ccccc1Nc1ncc(C(=O)N[C@H]2C[C@@H](O)C2)cc1NC(=O)c1cc(F)cc(C(F)(F)F)c1 [I-395] | – | 1 to 5 | 0.1 to 0.5
37 | CNC(=O)c1cnc(N2C(=O)NCc3ccccc32)c(NC(=O)c2csc3ccccc23)c1 [I-215] | – | 36 to 100 | 1 to 10
38 | CNC(=O)c1cnc(Nc2ncco2)c(NC(=O)c2cc(F)cc(C(F)(F)F)c2)c1 [I-291] | – | 36 to 100 | 10 to 100
39 | Cc1ccccc1Nc1cc(=O)n(Cc2ccccc2C#N)cc1NC(=O)c1csc2ccccc12 [I-279] | – | 10 to 36 | 0.1 to 0.5
40 | Cc1ccccc1Nc1ncc(C(=O)N[C@@H]2c3ccccc3C[C@@H]2O)cc1NC(=O)c1csc2ccccc12 [I-506] | 0.1 to 0.5 | 5 to 10 | –
41 | Cc1ccccc1Nc1ncc(-c2cccc(S(N)(=O)=O)c2)cc1NC(=O)c1cc(F)cc(C(F)(F)F)c1 [I-45] | – | 1 to 5 | 0.1 to 0.5
42 | CNC(=O)c1cnc(Nc2ccccc2C)c(NC(=O)c2cc(F)cc(C(F)(F)F)c2)c1 [I-1] | – | 5 to 10 | 0.5 to 1
43 | CNC(=O)c1cnc(Nc2cccc(N)c2)c(NC(=O)c2cc(F)cc(C(F)(F)F)c2)c1 [I-286] | – | 10 to 36 | 1 to 10
44 | Cc1ccccc1Nc1ncc(C(=O)NC2COCC(O)C2)cc1NC(=O)c1csc2ccccc12 (centres unmarked) [I-585] | 0.1 to 0.5 | 10 to 36 | –
45 | Cc1ccccc1Nc1ncc(-c2cnn(C)c2)cc1NC(=O)c1csc2ccccc12 [I-93] | – | 5 to 10 | 0.1 to 0.5
46 | Cc1ccccc1Nc1ncc(C(=O)NCCS(C)(=O)=O)cc1NC(=O)c1cc(F)cc(C(F)(F)F)c1 [I-219] | – | 1 to 5 | 0.1 to 0.5

Row | Compound | IC50 (H1047R PIK3CA enzyme; [1]) [µM] | IC50 (cells) [µM] | IC50 (H1047R PIK3CA enzyme) [µM]
47 | COc1cncc(CNC(=O)c2cnc(Nc3ccccc3C)c(NC(=O)c3csc4ccccc34)c2)c1 [I-199] | – | 10 to 36 | 0.1 to 0.5
48 | Cc1ccccc1Nc1ncc(C(=O)NC2(C(N)=O)CC2)cc1NC(=O)c1csc2ccccc12 [I-612] | 0.1 to 0.5 | < 1 | –
49 | Cc1ccccc1Nc1ncc(C(=O)NC2NC(=O)c3ccccc32)cc1NC(=O)c1csc2ccccc12 (centres unmarked) [I-568] | ≤ 0.1 | 1 to 5 | –
50 | CNC(=O)c1cnc(Nc2cccc(F)c2Cl)c(NC(=O)c2cc(F)cc(C(F)(F)F)c2)c1 [I-249] | – | 1 to 5 | 0.1 to 0.5
51 | COCCNC(=O)c1cnc(Nc2ccccc2C)c(NC(=O)c2csc3ccccc23)c1 [I-190] | – | 10 to 36 | 0.1 to 0.5
52 | CNC(=O)c1cnc(Nc2nccs2)c(NC(=O)c2cc(F)cc(C(F)(F)F)c2)c1 [I-299] | – | 36 to 100 | 10 to 100
53 | Cc1ccccc1Nc1ncc(C(=O)NCC2(O)CCOCC2)cc1NC(=O)c1csc2ccccc12 [I-603] | 0.5 to 1 | 10 to 36 | –
54 | Cc1ccccc1Nc1ncc(C(=O)NC2(C)CC2)cc1NC(=O)c1csc2ccccc12 [I-581] | ≤ 0.1 | 1 to 5 | –
55 | CNC(=O)c1cnc(Nc2ccccc2C)c(NC(=O)c2cccc3[nH]c(C(F)(F)F)nc23)c1 [I-530] | 0.1 to 0.5 | 10 to 36 | –
56 | Cc1cc(NC(=O)c2cnc(Nc3ccccc3C)c(NC(=O)c3cc(F)cc(C(F)(F)F)c3)c2)n[nH]1 [I-232] | – | 1 to 5 | 0.1 to 0.5
57 | Cc1ccccc1Nc1ncc(C(=O)N[C@@H]2CC[C@@H](F)C2)cc1NC(=O)c1csc2ccccc12 [I-547] | 0.1 to 0.5 | 5 to 10 | –
58 | Cc1ccccc1Nc1ncc(-c2ccc(C(N)=O)cc2)cc1NC(=O)c1cc(F)cc(C(F)(F)F)c1 [I-79] | – | 5 to 10 | 0.1 to 0.5
59 | Cc1ccccc1Nc1ncc(C(=O)N[C@H]2COc3ccccc3C2)cc1NC(=O)c1csc2ccccc12 [I-619] | 0.1 to 0.5 | 36 to 100 | –
60 | Cc1ccccc1Nc1nc2ccccc2cc1NC(=O)N1CC(O)c2ccccc21 (centres unmarked) [I-828, 3-hydroxy-N-(2-(o-tolylamino)quinolin-3-yl)indoline-1-carboxamide] | – | 5 to 10 | 0.5 to 1
61 | COC(=O)Cn1cc(NC(=O)c2csc3ccccc23)c(Nc2ccccc2C)cc1=O [I-309] | – | 36 to 100 | 1 to 10
62 | O=C(NC1(c2cccnc2)CC1)c1cnc(N2CCOc3ccccc32)c(NC(=O)c2csc3ccccc23)c1 [I-256] | – | 1 to 5 | 0.1 to 0.5
63 | Cc1ccccc1Nc1ncc(-c2ccc(O)cc2)cc1NC(=O)c1cc(F)cc(C(F)(F)F)c1 [I-82] | – | 10 to 36 | 0.5 to 1
64 | Cc1ccccc1Nc1ncc(C(=O)NC2CC(=O)N(C)C2)cc1NC(=O)c1csc2ccccc12 (centres unmarked) [I-434] | 0.1 to 0.5 | 5 to 10 | –
65 | Cc1ccccc1Nc1ncc(C(=O)NCC2(C#N)CC2)cc1NC(=O)c1csc2ccccc12 [I-580] | ≤ 0.1 | 1 to 5 | –
66 | CNC(=O)c1cnc(Nc2ccccc2C)c(NC(=O)c2cnn3cccc(Br)c23)c1 [I-468] | 1 to 10 | 10 to 36 | –
67 | Cc1ccccc1Nc1ncc(C(=O)NCC2CCOCC2)cc1NC(=O)c1csc2ccccc12 [I-198] | – | 10 to 36 | 0.1 to 0.5
